# Results from ChEMBL document CHEMBL5029199, “Increased Molecular Flexibility Widens the Gap between K i and K d values in Screening for Retinoid X Receptor Modulators” (ACS Med Chem Lett, 2022).
# Active and inactive are the calls of the source. The rule behind the calls is not given here.
# Columns and labels:
# Homo sapiens = organism: Homo sapiens; assay: Ratio of Ki for displacement of NEt-C343 from human RXRalpha-LBD expressed in African green monkey COS-1 cells to Kd for binding affinity to human RXRalpha-LBD expressed in African green monkey COS-1 cells; assay type: cell-based
# [1] = target: T1, Retinoic acid receptor RXR-alpha (Homo sapiens, UniProt P19793); assay: Binding affinity to human RXRalpha-LBD expressed in African green monkey COS-1 cells assessed as dissociated constant incubated for 2 hrs by tryptophan fluorescence quenching assay; assay type: cell-based
# T1 sequence (P19793 whole entry): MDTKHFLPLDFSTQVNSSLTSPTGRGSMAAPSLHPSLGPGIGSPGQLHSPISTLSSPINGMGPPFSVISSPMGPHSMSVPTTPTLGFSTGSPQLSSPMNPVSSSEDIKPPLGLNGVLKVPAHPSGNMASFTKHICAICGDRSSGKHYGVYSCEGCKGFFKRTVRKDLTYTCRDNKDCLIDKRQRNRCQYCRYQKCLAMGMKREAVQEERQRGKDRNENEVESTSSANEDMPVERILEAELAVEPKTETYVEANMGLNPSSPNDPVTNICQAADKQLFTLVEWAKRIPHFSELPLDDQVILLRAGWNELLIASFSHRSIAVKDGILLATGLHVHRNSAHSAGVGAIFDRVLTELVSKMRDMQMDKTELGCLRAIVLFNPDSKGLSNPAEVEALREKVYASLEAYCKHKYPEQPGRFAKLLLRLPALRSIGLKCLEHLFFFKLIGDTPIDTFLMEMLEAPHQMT
# [2] = target: T1, Retinoic acid receptor RXR-alpha; assay: Displacement of NEt-C343 from human RXRalpha-LBD expressed in African green monkey COS-1 cells assessed as inhibition constant incubated for 2 hrs by competitive binding assay; assay type: cell-based
# [3] = Drug uptake in African green monkey COS-1 cells at 10 uM measured after 24 hrs by trypan blue staining based LC-MS/MS analysis; assay type: ADME, cell-based; details: chlorocebus aethiops, cos-1, 24 h
# [4] = target: T2, Retinoic acid receptor RXR-alpha (Homo sapiens) (UniProt P19793); assay: Antagonist activity at human RXR-alpha expressed in African green monkey COS-1 cells assessed as reduction in NEt-TMN-induced receptor transactivation by measuring shift in concentration-response curve at 1 uM by luciferase reporter gene assay
# T2 sequence (whole entry): T1 sequence (P19793 whole entry)
# [5] = target: T1, Retinoic acid receptor RXR-alpha; assay: Antagonist activity at human RXR-alpha expressed in African green monkey COS-1 cells assessed as reduction in NEt-TMN-induced receptor transactivation at 1 uM by luciferase reporter gene assay; assay type: cell-based; details: read-out: pA2 (converted)
# [6] = target: T1, Retinoic acid receptor RXR-alpha; assay: Antagonist activity at human RXR-alpha expressed in African green monkey COS-1 cells assessed as reduction in bexarotene-induced receptor transactivation at 1 uM by luciferase reporter gene assay; assay type: cell-based; details: read-out: pA2 (converted)
Kd [1] [nM],Ki [2] [nM],Drug uptake [3] [pg/10^4 cells],Activity [4],Kb [5] [nM],Kb [6] [nM],Compound,Ratio (Homo sapiens)
705,3160,81.6,inactive,,,CCCCCCOc1cc2c(cc1-n1nnc3cc(C(=O)O)ccc31)C(C)(C)CCC2(C)C,4.48
277,384,14.8,,26.3,8.71,CCCCCOc1cc2c(cc1-n1c(C(F)(F)F)nc3cc(C(=O)O)ccc31)C(C)(C)CCC2(C)C,1.39
764,3540,10.2,inactive,,,CCCCCOc1cc2c(cc1-n1nnc3cc(C(=O)O)ccc31)C(C)(C)CCC2(C)C,4.63
,,55.1,,,,CCCCCCOc1cc2c(cc1-n1c(C(F)(F)F)nc3cc(C(=O)O)ccc31)C(C)(C)CCC2(C)C,
